Consider eleven molecules from US20250051409A1, “MODULATORS OF PHOSPHATIDYLSERlNE DECARBOXYLASE AND USE THEREOF” (THE NATIONAL INSTITUTE FOR BIOTECHNOLOGY IN THE NEGEV LTD., priority 2021, published 2025).

Usually IC50 stands for the concentration at which inhibition is half-maximal. Low values mean higher potency, high ones lower potency.

For series [1], the system named is A549 lung cancer cell. Format: cell-based, human. The procedure:
(B) Inhibition of PSD activity by the 2F3 (●) or 1C11 (◯) peptide. PSD activity was measured using the DSB-3 method. (C-E) Cell proliferation inhibition following incubation of A549 cells with the indicated mitochondria- or nuclear-targeted peptides for 24 h in a serum-free medium, and cell proliferation was assayed using the SRB method. Results are the means±SEM (n=3). (F) A549 cells were incubated for 90 min with 5 μM of the mitochondria- or nuclear targeted FITC-labelled peptides, immunostained with anti-SMAC antibodies and with DAPI and visualized by confocal microscope for subcellular localization. Arrows indicates nuclear (n=3). Scale bars represent 20
(A) A549 cells were incubated with the indicated concentration of 1C11-HTRA2-derived peptide targeted to the mitochondrion with the targeting sequence added to the N-terminus (N-Ter) or the C-terminus (C-Ter). (B) Mitochondrion targeted 1C11-HTRA2-derived peptide was modified by replacing the three amino acids in the C or the N-terminus of the peptide, or all amino acids in the peptide with the D-confirmation of the amino acid (underlined amino acids)). Following 24 h incubation in a serum-free medium, cell proliferation was assayed using the SRB method. (C) The concentration required for 50% inhibition of cell proliferation (IC50) is presented. Results are the means±SEM (n=3).
A549 (human lung adenocarcinoma epithelial cell), HEK-293T (human embryonic kidney), H1563/CRL-5875 (non-small cell lung cancer adenocarcinoma), H-358 (bronchioalveolar carcinoma), HaCaT (spontaneously transformed aneuploid immortal human skin keratinocyte), and WI-38 (fibroblast-like fetal lung cell) cell lines were purchased from the American Type Culture Collection (ATCC) (Manassas, VA), and were maintained as per ATCC instructions. Cells were maintained in ATCC recommended medium at 37° C. in an incubator with 5% CO2. Cell lines were routinely tested for Mycoplasma contamination. For SMAC overexpression, cells were seeded (200,000 cells/well) on 6-well culture plates and allowed to adhere overnight. These adhered cells were transfected with PVMV3.1-SMAC or empty vector using the JetPRIME transfection reagent (Illkirch, France), according to the manufacturers' instructions. Medium was changed 6 h post transfection, and cells were harvested 48 h post transfection.
Cells were seeded in 96-well cell culture plates (8,000/well) and allowed to grow for 48 h. After washing with PBS, cells were fixed with 10% trichloroacetic acid, and stained with SRB for 20 min. Excess SRB were removed, and cells were washed with 1% acetic acid. SRB extraction was done using 100 mM Tris-base, and absorbance at 510 nm was determined using an Infinite M1000 plate reader (Tecan, Mannedorf, Switzerland).

Series [2] relates to A549 cell xenografts. Conditions: tumors injected 3 times a week, final concentration 50 μM.
Method: A549 cells were S.C. inoculated into female nude mice (7×10^6 cells/mouse). Tumors sizes were measured (using a digital caliper) and volumes were calculated. When tumors volumes reached 60-100 mm3 (day 12), the mice were divided into 2 groups and xenografts were untreated (●) or treated with HtrA2/Omi-derived D-amino acid peptide targeted to the mitochondria (D-HTRA2-M, o). The tumors were injected 3 times a week to a final concentration of 50 μM. […] Tumors of A549 cell xenografts were dissected, photographed (B) and weighted (C). […] Results represent the means±SEM (n=8), **P≤0.01, ***P≤0.001.
A549 cells were inoculated subcutaneously into female nude mice (7×10^6 cells/mouse). Tumors sizes were measured (using a digital caliper) and volumes were calculated. When tumors volumes reached 60-100 mm3 (day 12), the mice were divided into 2 groups (control and treatment) and in the treatment group xenografts were treated with HtrA2/Omi-derived D-amino acid peptide (SEQ ID NO:35) targeted to the mitochondria. The tumors were injected 3 times a week to a final concentration of 50 μM or the peptide was administered by intravenous injection 2 times a week to a final concentration of 20 mg/kg. Tumors of A549 cell xenografts were dissected, photographed and weighted.
The test system of series [3] is different cell lines. Conditions: cited from earlier work.

Where two headings read alike, the source gives them in different places. Square brackets hold non-standard residues; d marks the D form. Ends that are not written are not given here. Peptide text beside a SMILES is read from it. Dmt = Cc1cc(O)cc(C)c1C[C@H](N)C(=O)O; Orn = NCCC[C@H](N)C(=O)O A value given as a limit tells only on which side of the number the result lay.

In series [1] (24 h), `CC[C@H](C)[C@H](NC(=O)[C@@H](NC(=O)[C@H](CC(N)=O)NC(=O)[C@H](C)NC(=O)[C@H](CCCCN)NC(=O)[C@H](CC(C)C)NC(=O)[C@H](CC(C)C)NC(=O)[C@H](CC(N)=O)NC(=O)[C@H](CC(=O)O)NC(=O)[C@H](CC(C)C)NC(=O)[C@@H](NC(=O)[C@@H]1CCCN1C(=O)[C@H](CC(C)C)NC(=O)[C@@H](NC(=O)[C@H](CS)NC(=O)[C@@H](NC(=O)[C@H](CC(C)C)NC(=O)[C@H](CCC(N)=O)NC(=O)[C@H](CCC(N)=O)NC(=O)[C@H](Cc1ccccc1)NC(=O)[C@H](Cc1ccccc1)NC(=O)[C@H](CCCN)NC(=O)[C@H](Cc1c(C)cc(O)cc1C)NC(=O)[C@H](N)CCCNC(=N)N)[C@@H](C)O)C(C)C)[C@@H](C)CC)C(C)C)C(=O)N[C@@H](CC(N)=O)C(=O)N[C@@H](CCCCN)C(=O)N[C@@H](CCC(N)=O)C(=O)N[C@@H](CCC(=O)O)C(=O)N[C@@H](Cc1c[nH]cn1)C(=O)O` [D-Arg-Dmt-Orn-Phe-1E14] (H-[dR][Dmt][Orn]FFQQLTCVLPILDNLLKANVINKQEH-OH; N-terminus and C-terminus assumed) came in with an IC50 of over 100 µM. As for `Cc1cc(O)cc(C)c1C[C@H](NC(=O)[C@H](N)CCCNC(=N)N)C(=O)N[C@@H](CCCN)C(=O)N[C@@H](Cc1ccccc1)C(=O)N1CCC[C@H]1C(=O)N[C@@H](CC(N)=O)C(=O)N[C@@H](CCC(N)=O)C(=O)N[C@@H](CO)C(=O)N[C@@H](CO)C(=O)N[C@@H](CCCNC(=N)N)C(=O)N[C@@H](C)C(=O)N[C@@H](Cc1ccccc1)C(=O)N[C@@H](CCC(N)=O)C(=O)NCC(=O)N[C@H](C(=O)N[C@@H](CC(=O)O)C(=O)N[C@@H](Cc1c[nH]cn1)C(=O)N[C@@H](CO)C(=O)N[C@@H](CO)C(=O)N[C@@H](CC(=O)O)C(=O)N[C@@H](CC(C)C)C(=O)N[C@@H](C)C(=O)N[C@@H](Cc1ccccc1)C(=O)N[C@@H](CC(=O)O)C(=O)N[C@@H](Cc1ccccc1)C(=O)N[C@@H](CC(C)C)C(=O)N[C@@H](CO)C(=O)N[C@@H](CCC(N)=O)C(=O)N[C@@H](CCC(N)=O)C(=O)O)[C@@H](C)O` [D-Arg-Dmt-Orn-Phe-2I8] (H-[dR][Dmt][Orn]FPNQSSRAFQGTDHSSDLAFDFLSQQ-OH; N-terminus and C-terminus assumed), half-maximal inhibition in series [1] (24 h) (IC50) required 66.8 ± 4.7 µM.

`CC[C@H](C)[C@H](NC(=O)[C@@H]1CCCN1C(=O)[C@H](CO)NC(=O)[C@H](CO)NC(=O)[C@@H](NC(=O)[C@H](CO)NC(=O)[C@H](CC(C)C)NC(=O)[C@H](C)NC(=O)[C@H](Cc1ccccc1)NC(=O)[C@H](CCCN)NC(=O)[C@H](Cc1c(C)cc(O)cc1C)NC(=O)[C@H](N)CCCNC(=N)N)[C@@H](C)O)C(=O)N1CCC[C@H]1C(=O)N[C@@H](CO)C(=O)N[C@H](C(=O)N1CCC[C@H]1C(=O)N[C@@H](CCC(N)=O)C(=O)N[C@@H](CO)C(=O)N[C@@H](CCC(N)=O)C(=O)N[C@@H](C)C(=O)N[C@@H](CCC(N)=O)C(=O)N1CCC[C@H]1C(=O)N[C@@H](CCC(N)=O)C(=O)N[C@H](C(=O)NCC(=O)N[C@@H](CO)C(=O)NCC(=O)N[C@@H](C)C(=O)N[C@@H](CO)C(=O)O)[C@@H](C)O)C(C)C` [H-(D-Arg)-Dmt-Orn-Phe-2F3] (H-[dR][Dmt][Orn]FALSTSSPIPSVPQSQAQPQTGSGAS-OH; C-terminus assumed) showed an IC50 in series [1] (24 h) of over 100 µM. In turn, `CC(C)C[C@H](NC(=O)[C@H](CCCNC(=N)N)NC(=O)[C@H](C)NC(=O)[C@H](Cc1c[nH]c2ccccc12)NC(=O)[C@H](CC(C)C)NC(=O)[C@H](CO)NC(=O)[C@@H]1CCCN1C(=O)[C@@H](NC(=O)CNC(=O)[C@H](Cc1ccc(O)cc1)NC(=O)[C@@H](NC(=O)[C@@H](NC(=O)[C@H](CCCNC(=N)N)NC(=O)[C@H](C)NC(=O)[C@H](CCCNC(=N)N)NC(=O)[C@@H]1CCCN1C(=O)[C@H](CC(=O)O)NC(=O)[C@H](CO)NC(=O)[C@@H](NC(=O)CNC(=O)[C@H](CO)NC(=O)[C@@H](NC(=O)[C@H](CC(C)C)NC(=O)[C@H](CC(C)C)NC(=O)[C@H](C)NC(=O)[C@H](CCCCN)NC(=O)[C@H](CCCNC(=N)N)NC(=O)[C@@H](CCCNC(=N)N)NC(=O)[C@@H](N)CCCNC(=N)N)[C@@H](C)O)[C@@H](C)O)C(C)C)[C@@H](C)O)[C@@H](C)O)C(=O)O` [R-{D-Arg}-RK-1C11] (H-R[dR]RKALLTSGTSDPRARVTYGTPSLWARL-OH; N-terminus and C-terminus assumed) displayed an IC50 in series [1] (24 h) of 66.5 ± 3.9 µM. On the same count and under the same terms, the result for `CC[C@H](C)[C@H](NC(=O)[C@@H](NC(=O)[C@H](CC(N)=O)NC(=O)[C@H](C)NC(=O)[C@H](CCCCN)NC(=O)[C@H](CC(C)C)NC(=O)[C@H](CC(C)C)NC(=O)[C@H](CC(N)=O)NC(=O)[C@H](CC(=O)O)NC(=O)[C@H](CC(C)C)NC(=O)[C@@H](NC(=O)[C@@H]1CCCN1C(=O)[C@H](CC(C)C)NC(=O)[C@@H](NC(=O)[C@H](CS)NC(=O)[C@@H](NC(=O)[C@H](CC(C)C)NC(=O)[C@H](CCC(N)=O)NC(=O)[C@H](CCC(N)=O)NC(=O)[C@H](Cc1ccccc1)NC(=O)[C@H](CCCCN)NC(=O)[C@H](CCCNC(=N)N)NC(=O)[C@@H](CCCNC(=N)N)NC(=O)[C@@H](N)CCCNC(=N)N)[C@@H](C)O)C(C)C)[C@@H](C)CC)C(C)C)C(=O)N[C@@H](CC(N)=O)C(=O)N[C@@H](CCCCN)C(=O)N[C@@H](CCC(N)=O)C(=O)N[C@@H](CCC(=O)O)C(=O)N[C@@H](Cc1c[nH]cn1)C(=O)O` [R-{D-Arg}-RK-1E14] (H-R[dR]RKFQQLTCVLPILDNLLKANVINKQEH-OH; N-terminus and C-terminus assumed) reads over 100 µM; that for `CC[C@H](C)[C@H](NC(=O)[C@@H]1CCCN1C(=O)[C@H](CO)NC(=O)[C@H](CO)NC(=O)[C@@H](NC(=O)[C@H](CO)NC(=O)[C@H](CC(C)C)NC(=O)[C@H](C)NC(=O)[C@H](CCCCN)NC(=O)[C@H](CCCNC(=N)N)NC(=O)[C@@H](CCCNC(=N)N)NC(=O)[C@@H](N)CCCNC(=N)N)[C@@H](C)O)C(=O)N1CCC[C@H]1C(=O)N[C@@H](CO)C(=O)N[C@H](C(=O)N1CCC[C@H]1C(=O)N[C@@H](CCC(N)=O)C(=O)N[C@@H](CO)C(=O)N[C@@H](CCC(N)=O)C(=O)N[C@@H](C)C(=O)N[C@@H](CCC(N)=O)C(=O)N1CCC[C@H]1C(=O)N[C@@H](CCC(N)=O)C(=O)N[C@H](C(=O)NCC(=O)N[C@@H](CO)C(=O)NCC(=O)N[C@@H](C)C(=O)N[C@@H](CO)C(=O)O)[C@@H](C)O)C(C)C` [R-{D-Arg}-RK-2F3] (H-R[dR]RKALSTSSPIPSVPQSQAQPQTGSGAS-OH; N-terminus and C-terminus assumed), 28.9 ± 5.2 µM; that for `CC(C)C[C@H](NC(=O)[C@H](CC(=O)O)NC(=O)[C@H](CO)NC(=O)[C@H](CO)NC(=O)[C@H](Cc1c[nH]cn1)NC(=O)[C@H](CC(=O)O)NC(=O)[C@@H](NC(=O)CNC(=O)[C@H](CCC(N)=O)NC(=O)[C@H](Cc1ccccc1)NC(=O)[C@H](C)NC(=O)[C@H](CCCNC(=N)N)NC(=O)[C@H](CO)NC(=O)[C@H](CO)NC(=O)[C@H](CCC(N)=O)NC(=O)[C@H](CC(N)=O)NC(=O)[C@@H]1CCCN1C(=O)[C@H](CCCCN)NC(=O)[C@H](CCCNC(=N)N)NC(=O)[C@@H](CCCNC(=N)N)NC(=O)[C@@H](N)CCCNC(=N)N)[C@@H](C)O)C(=O)N[C@@H](C)C(=O)N[C@@H](Cc1ccccc1)C(=O)N[C@@H](CC(=O)O)C(=O)N[C@@H](Cc1ccccc1)C(=O)N[C@@H](CC(C)C)C(=O)N[C@@H](CO)C(=O)N[C@@H](CCC(N)=O)C(=O)N[C@@H](CCC(N)=O)C(=O)O` [R-{D-Arg}-RK-2I8] (H-R[dR]RKPNQSSRAFQGTDHSSDLAFDFLSQQ-OH; N-terminus and C-terminus assumed), over 100 µM. Consider ALSTSSPIPSVPQSQAQPQTGSGAS [2F3], for which half-maximal inhibition in series [1] (IC50) was put at 19.6 µM. For the molecule FQQLTCVLPILDNLLKANVINKQEH [1E14], in series [1] (targeted to the mitochondria or the nucleus), the “effect on cell growth” value is given as “no effect on cell growth”. Take “SEQ ID NO:35: HtrA2/Omi-derived D-amino acid peptide targeted to the mitochondria ([dA][dL][dL][dT][dS]G[dT][dS][dD][dP][dR][dA][dR][dV][dT][dY]G[dT][dP][dS][dL][dW][dA][dR][dL])”: the “decrease in tumor weight” value in series [2] is “up to 80%”. The “increase of tumor volume” value in series [2] (after 28 days) is “about 4 fold”. As for [dR][Dmt][Orn]F [mtCPP-1], in series [3], the induction of apoptosis entry was “did not induce apoptosis” and the “toxicity in cell lines” value was “no toxicity”.
